Results published in the supplement of paper PMC10307832.

What was measured:
Test in all cases: relative viability (nuclei count vs DMSO), 5 days (fraction); higher = more cells survive
Carboplatin = compound: C1CC(C1)(C(=O)O)C(=O)O.[NH2-].[NH2-].[Pt+2] [Carboplatin]
Outline: (§1)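 MetaXpress counted nuclei in 4× images of lung cancer cell lines that had been fixed, permeabilised and Hoechst-stained in one step. Before that, cells in 1536-well plates were kept overnight at 37 °C, pinned with five √10-spaced library-drug doses on vehicle-anchored plates, and cultured 5 days without medium change. Viability takes treated-well nuclei over vehicle-well nuclei and uses the median across plates. Plates were accepted only at control CV below 25% and at least one doubling.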

GSK126 = compound: CC[C@H](C)N1C=C(C2=C(C=C(C=C21)C3=CN=C(C=C3)N4CCNCC4)C(=O)NCC5=C(C=C(NC5=O)C)C)C [GSK126]
Outline: as §1

MLN4924 = compound: NS(=O)(=O)OC[C@@H]1C[C@@H](n2ccc3c(N[C@H]4CCc5ccccc54)ncnc32)C[C@@H]1O [MLN4924]
Outline: as §1

GSK126 + Dasatinib = compound: CC[C@H](C)N1C=C(C2=C(C=C(C=C21)C3=CN=C(C=C3)N4CCNCC4)C(=O)NCC5=C(C=C(NC5=O)C)C)C [GSK126] + Cc1nc(Nc2ncc(C(=O)Nc3c(C)cccc3Cl)s2)cc(N2CCN(CCO)CC2)n1 [Dasatinib] (partner 0.075 µM)
Outline: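 Lung cancer cell lines in 1536-well plates got either a single drug or a fixed anchor-drug dose together with five library-drug doses (not always all listed) in √10 steps, by pin tool, on the day after seeding. Nuclei were counted after 5 days, and relative viability is the treated-to-vehicle ratio of nuclei counts. Values are medians of duplicate plates.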

Cell Line	relative viability (Carboplatin; 0.08 µM)	relative viability (Carboplatin; 0.253 µM)	relative viability (Carboplatin; 0.8 µM)	relative viability (Carboplatin; 2.53 µM)	relative viability (Carboplatin; 8 µM)	relative viability (GSK126; 0.08 µM)	relative viability (GSK126; 0.253 µM)	relative viability (GSK126; 0.8 µM)	relative viability (GSK126; 2.53 µM)	relative viability (GSK126; 8 µM)	relative viability (MLN4924; 0.04 µM)	relative viability (MLN4924; 0.1265 µM)	relative viability (MLN4924; 0.4 µM)	relative viability (MLN4924; 1.265 µM)	relative viability (MLN4924; 4 µM)	relative viability (GSK126 + Dasatinib; first compound 0.08 µM)	relative viability (GSK126 + Dasatinib; first compound 0.253 µM)	relative viability (GSK126 + Dasatinib; first compound 0.8 µM)	relative viability (GSK126 + Dasatinib; first compound 2.53 µM)	relative viability (GSK126 + Dasatinib; first compound 8 µM)
Calu-6	1.01	1.03	0.973	0.851	0.491	1.1	1.05	0.954	1.07	1.03	0.914	0.653	0.24	0.141	0.134	–	–	–	–	–
ChaGo-K-1	0.989	0.959	0.93	0.818	0.614	1.01	1.03	0.973	1.05	1.02	0.858	0.833	0.503	0.238	0.23	0.653	0.552	0.629	0.572	0.547
EBC-1	1.07	0.987	0.97	0.969	0.851	1.03	0.966	0.969	0.978	0.947	0.855	0.703	0.283	0.104	0.131	–	–	–	–	–
EKVX	1.01	0.984	0.99	1.05	0.855	1.02	1.08	1.02	1.03	0.982	0.933	0.914	0.685	0.238	0.209	0.523	0.309	0.543	0.589	0.508
EMC-BAC-2	1.05	0.942	1.16	1.2	0.855	0.978	0.965	0.984	0.989	1.16	0.876	0.906	0.359	0.243	0.257	0.346	0.339	0.176	0.259	0.332
EPLC-272H	1.2	1.11	1.07	0.924	0.919	1.1	1.01	0.936	1.08	1.04	0.873	0.637	0.0627	0.119	0.173	0.456	0.375	0.321	0.404	0.327
H3255	0.979	1.11	1.01	0.939	0.784	1.04	1.01	0.993	1.06	0.963	0.825	0.721	0.391	0.246	0.328	0.396	0.383	0.393	0.419	0.346
HARA	1.02	0.937	0.932	0.921	0.944	1.07	0.936	0.931	0.855	0.756	0.855	0.834	0.412	0.103	0.127	0.3	0.281	0.226	0.262	0.241
HCC-15	1.03	1.05	0.964	0.94	0.864	1.07	1.03	0.988	1.01	0.909	0.62	0.483	0.158	0.0986	0.103	0.728	0.671	0.578	0.609	0.653
